Experimental findings from US20090099167A1, “Organic compounds” (Novartis Institutes for Biomedical Research, priority 2004, published 2009) are described below.

The term IC50 denotes the point on the concentration scale where inhibition reaches its midpoint.

T1 sequence (P08069 980-1367): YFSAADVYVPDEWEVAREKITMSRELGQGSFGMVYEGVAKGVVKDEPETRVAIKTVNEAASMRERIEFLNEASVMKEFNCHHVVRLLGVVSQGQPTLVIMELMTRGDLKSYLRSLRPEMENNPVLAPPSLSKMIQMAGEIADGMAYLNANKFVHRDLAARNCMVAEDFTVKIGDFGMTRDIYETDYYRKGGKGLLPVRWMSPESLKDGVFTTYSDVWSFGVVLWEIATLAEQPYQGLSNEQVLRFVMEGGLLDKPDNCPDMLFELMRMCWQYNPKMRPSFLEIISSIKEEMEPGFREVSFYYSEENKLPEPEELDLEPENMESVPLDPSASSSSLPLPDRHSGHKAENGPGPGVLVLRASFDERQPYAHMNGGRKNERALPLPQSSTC

The test addresses T1, human IGF-IR (Homo sapiens, UniProt P08069).
T1 construct: expresses the amino acid region 950-1337 of the mature peptide cytoplasmic domain of the human IGF-IR; made in house; host or cells: baculovirus (Bac-to-Bac)
Description: IGF-1R tyrosine kinase assay, GST-IGF-1R. The format is biochemical. Particulars: Table 5; read-out: IGF-1R, IC50 class. From the text:
The inhibition of IGF-1R and Ins-R can be determined as follows: The baculovirus donor vector pfbgx3IGFIRcd is used to generate a recombinant baculovirus that expresses the amino acid region 950-1337 of the mature peptide cytoplasmic domain of the human IGF-IR. To generate the cDNA fragment encoding the amino acid region 919-1343 of the intra-cytoplasmic kinase domain of the human insulin receptor, pC5hInsR is used. The fragments of the human IGF-IR and Ins-R are cloned, expressed and small-scale purified as a factor Xa-cleavable glutathione-S-transferase (GST)-fusion protein using the Bac-to-Bac™ system (GIBCO BRL) of recombinant baculovirus generation. Virus containing media is collected from the transfected cell culture and used for infection to increase its titer. Virus containing media obtained after two rounds of infection is used for large-scale protein expression. Cell extracts are prepared and loaded onto a glutathione-Sepharose (Pharmacia) column. After washing, the GST-tagged proteins are then eluted with a glutathione-containing buffer. Purified protein is stored at −70° C. in elution buffer. Tyrosine protein kinase assays with purified GST-IGF-1R and GST-ins-R are carried in a final volume of 30 μl containing 20 mM Tris-HCl, pH 7.6, 10 mM MgCl2, 0.01 mM Na3VO4, 1% DMSO, 1 mM DTT, 3 μg/ml poly(Glu,Tyr) 4:1 and 10 μM ATP (γ-[^33P]-ATP 0.1 μCi). The assay is performed in 96-well plates at ambient temperature for 20 min and terminated by addition of 25 μl 0.05 M EDTA pH 7.0. An aliquot of 40 μl is spotted with a multichannel dispenser on Whatman P81 membranes mounted in a Millipore Microtiter filter manifold connected to a low vacuum source. After elimination of liquid, the membrane is transferred to a sequence of 4 washing baths containing 0.5% H3PO4 and one with EtOH (shaking incubation for 10 min each), dried, mounted onto a Hewlett Packard TopCount manifold added 10 μl Microscint® and counted. Compounds of formula (I) show up to 90% inhibition of Ins-R at 10,000 nM, preferably between 60-90% inhibition. The inhibition of Tek can be determined as follows: The procedure of the expression, purification and assay these kinases has been described. Fabbro et al., Pharmacol. Ther. 82(2-3) 293-301 (1999). In brief, the glutathione S-transferase (GST) gene from the pAcG1 vector (Pharmingen) is excised with EcoRV and EcoRI and inserted into the cloning site of the Fast-Bac baculoviral vector (GIBCO) creating a 5530 bp vector with N-terminal cloning sites derived from the pAcG1 fusion vector (FBG0). The C-terminal cloning site may be any cloning site (from the Fast-Bac vector) downstream of the N-terminal cloning site used. N-terminally GST-fused (pAcG1, Pharmingen) KDR, Flt-1, Flk-1, Tek and PDGFR-β kinase domains are obtained from ProQinase, Freiburg, Germany. Tek is recloned into the FBG1 vector by EcoRI excision and ligation into EcoRI digested FBG1 (FBG1-Tek). The coding sequences for the whole cytoplasmic domain of c-Kit (aa 544-976) and c-Fms (aa 538-972) are amplified by PCR from human uterus and from human bone marrow cDNA libraries (Clontech), respectively. The amplified DNA fragments are fused to GST by cloning them into FBG1 as BamHI-EcoRI insertions, to yield FBG1-c-Kit and FBG1-c-Fms. Tek is recloned into the FBG0 transfer vector by EcoRI excision and ligation into EcoRI digested FBG0 (FBG-Tie2/Tek). FGFR-1 and c-met kinase domains are obtained by PCR from human A431 cells. N-terminal primers contain an overhanging EcoRI site, while C-terminal primers contain a XhoI site to aid cloning into the transfer vectors. After digestion of both the PCR fragments and FBG0 the cleavage products are gel-purified and ligated together to form the kinase constructs (FBG-Met, FBG-FGFR-1).
For the molecule `Cc1nc2c(-c3cccc(N4CC[N+](C)([O-])CC4)c3)cnn2c(N)c1-c1ccc(F)cc1` [Example 106, 6-(4-Fluoro-phenyl)-5-methyl-3-[3-(4-methyl-4-oxy-piperazin-1-yl)-phenyl]-pyrazolo[1,5-a]pyrimidin-7-ylamine], the IC50 is above 10 µM.
In the case of `CN1CCN(c2cccc(-c3cnn4c(N)c(Cc5cccc(Br)c5)cnc34)c2)CC1` [Example 85, 6-(3-Bromo-benzyl)-3-[3-(4-methyl-piperazin-1-yl)-phenyl]pyrazolo[1,5-a]pyrimidin-7-ylamine], the IC50 was above 10 µM.
Next, `Cc1nc2c(-c3ccc(N4CCN(C)CC4)cc3)cnn2c(N)c1-c1ccc(F)c(Cl)c1` [Example 83, 6-(3-Chloro-4-fluoro-phenyl)-5-methyl-3-[4-(4-methyl-piperazin-1-yl)-phenyl]-pyrazolo[1,5-a]pyrimidin-7-ylamine]: above 10 µM; `COc1ccc(-c2cnn3c(N)c(-c4cccc(Cl)c4)c(CF)nc23)cc1OC` [Example 92, 6-(3-Chloro-phenyl)-3-(3,4-dimethoxy-phenyl)-5-fluoromethyl-pyrazolo[1,5-a]pyrimidin-7-ylamine]: above 10 µM.
To `Cc1nc2c(-c3cccc(N4CCN(CCO)CC4)c3)cnn2c(N)c1-c1ccc(F)c(Cl)c1` [Example 100, 2-(4-{3-[7-Amino-6-(3-chloro-4-fluoro-phenyl)-5-methyl-pyrazolo[1,5-a]pyrimidin-3-yl]-phenyl}-piperazin-1-yl)-ethanol] belongs above 10 µM; to `Cc1nc2c(-c3ccc(N4CCN(C)CC4)cc3)cnn2c(N)c1-c1ccc(F)cc1` [Example 79, 6-(4-Fluoro-phenyl)-5-methyl-3-[4-(4-methyl-piperazin-1-yl)-phenyl]-pyrazolo[1,5-a]pyrimidin-7-ylamine], above 10 µM.
Regarding `Cc1nc2c(-c3cccc(N4C[C@@H](C)O[C@@H](C)C4)c3)cnn2c(N)c1-c1cccc(Cl)c1` [Example 89, 6-(3-Chloro-phenyl)-3-[3-((2R,6S)-2,6-dimethyl-morpholin-4-yl)-phenyl]-5-methyl-pyrazolo[1,5-a]pyrimidin-7-ylamine], the IC50 was above 10 µM.
To `Cc1nc2c(-c3cccc(N4CCN(CCO)CC4)c3)cnn2c(N)c1-c1cccc(Cl)c1` [Example 90, 2-(4-{3-[7-Amino-6-(3-chloro-phenyl)-5-methyl-pyrazolo[1,5-a]pyrimidin-3-yl]-phenyl}-piperazin-1-yl)-ethanol] belongs above 10 µM; to `Cc1nc2c(-c3cccc(N4CCN(CCO)CC4)c3)cnn2c(N)c1-c1ccc(F)cc1` [Example 97, 2-(4-{3-[7-Amino-6-(4-fluoro-phenyl)-5-methyl-pyrazolo[1,5-a]pyrimidin-3-yl]-phenyl}-piperazin-1-yl)-ethanol], above 10 µM; to `COc1ccc(-c2cnn3c(N)c(-c4ccc(F)c(F)c4)c(C)nc23)cc1OC` [Example 99, 6-(3,4-Difluoro-phenyl)-3-(3,4-dimethoxy-phenyl)-5-methyl-pyrazolo[1,5-a]pyrimidin-7-ylamine], above 10 µM.
To `COc1ccc(-c2cnn3c(N)c(-c4cccc(Cl)c4)c(C)nc23)cc1` [Example 88, 6-(3-Chloro-phenyl)-3-(4-methoxy-phenyl)-5-methyl-pyrazolo[1,5-a]pyrimidin-7-ylamine] belongs above 10 µM; to `Cc1nc2c(-c3cccc(N4CCN(C5CCN(C)CC5)CC4)c3)cnn2c(N)c1-c1cccc(Cl)c1` [Example 81, 6-(3-Chloro-phenyl)-5-methyl-3-{3-[4-(1-methyl-piperidin-4-yl)-piperazin-1-yl]-phenyl}-pyrazolo[1,5-a]pyrimidin-7-ylamine], below 1 µM.
Take `Cc1nc2c(-c3cccc([N+]4([O-])CC[N+](C)([O-])CC4)c3)cnn2c(N)c1-c1ccc(F)cc1` (stereo not shown) [Example 107, 6-(4-Fluoro-phenyl)-5-methyl-3-[3-(4-methyl-1,4-dioxy-piperazin-1-yl)-phenyl]-pyrazolo[1,5-a]pyrimidin-7-ylamine]: the IC50 was above 10 µM.
To `COc1ccc(-c2cnn3c(N)c(-c4ccc(F)cc4)c(C)nc23)cc1` [Example 96, 6-(4-Fluoro-phenyl)-3-(4-methoxy-phenyl)-5-methyl-pyrazolo[1,5-a]pyrimidin-7-ylamine] belongs above 10 µM; to `Cc1nc2c(-c3cccc(N4CCC(N5CCCC5)CC4)c3)cnn2c(N)c1-c1cccc(Cl)c1` [Example 102, 6-(3-Chloro-phenyl)-5-methyl-3-[3-(4-pyrrolidin-1-yl-piperidin-1-yl)-phenyl]-pyrazolo[1,5-a]pyrimidin-7-ylamine], above 10 µM; to `Cc1nc2c(-c3cccc(N4CCN(C)CC4)c3)cnn2c(N)c1-c1ccc(F)c(Cl)c1` [Example 82, 6-(3-Chloro-4-fluoro-phenyl)-5-methyl-3-[3-(4-methyl-piperazin-1-yl)-phenyl]pyrazolo[1,5-a]pyrimidin-7-ylamine], above 10 µM.
Consider `CN1CCN(c2cccc(-c3cnn4c(N)c(Cc5ccccc5)cnc34)c2)CC1` [Example 91, 6-Benzyl-3-[3-(4-methyl-piperazin-1-yl)-phenyl]-pyrazolo[1,5-a]pyrimidin-7-ylamine], for which the IC50 was above 10 µM.
To `Cc1nc2c(-c3ccc(N4CCN(C)CC4)cc3)cnn2c(N)c1-c1cccc(Cl)c1` [Example 73, 6-(3-Chloro-phenyl)-5-methyl-3-[4-(4-methyl-piperazin-1-yl)-phenyl]-pyrazolo[1,5-a]pyrimidin-7-ylamine] belongs above 10 µM.
With `Cc1nc2c(-c3cccc(N4CCOCC4)c3)cnn2c(N)c1-c1cccc(Cl)c1` [Example 87, 6-(3-Chloro-phenyl)-5-methyl-3-(3-morpholin-4-yl-phenyl)-pyrazolo[1,5-a]pyrimidin-7-ylamine], the IC50 is above 10 µM.
To `COc1ccc(-c2cnn3c(N)c(-c4cccc(Cl)c4)c(C)nc23)cc1OC` [Example 93, 6-(3-Chloro-phenyl)-3-(3,4-dimethoxy-phenyl)-5-methyl-pyrazolo[1,5-a]pyrimidin-7-ylamine] belongs above 10 µM; to `COc1ccc(-c2cnn3c(N)c(-c4ccc(F)c(Cl)c4)c(C)nc23)cc1` [Example 95, 6-(3-Chloro-4-fluoro-phenyl)-3-(4-methoxy-phenyl)-5-methyl-pyrazolo[1,5-a]pyrimidin-7-ylamine], above 10 µM.
Next, `Cc1nc2c(-c3cccc(N4CCN(C)CC4)c3)cnn2c(N)c1-c1ccc(F)c(F)c1` [Example 98, 6-(3,4-Difluoro-phenyl)-5-methyl-3-[3-(4-methyl-piperazin-1-yl)-phenyl]-pyrazolo[1,5-a]pyrimidin-7-ylamine]: above 10 µM.
Take `Cc1nc2c(-c3cccc(N4CCN(C)CC4)c3)cnn2c(N)c1-c1cccc(Br)c1` [Example 84, 6-(3-Bromo-phenyl)-5-methyl-3-[3-(4-methyl-piperazin-1-yl)-phenyl]-pyrazolo[1,5-a]pyrimidin-7-ylamine]: the IC50 was above 10 µM.
Next, `Cc1nc2c(-c3cccc(N4CCN(C)CC4)c3)cnn2c(N)c1-c1ccc(F)cc1` [Example 80, 6-(4-Fluoro-phenyl)-5-methyl-3-[3-(4-methyl-piperazin-1-yl)-phenyl]-pyrazolo[1,5-a]pyrimidin-7-ylamine]: above 10 µM; `Cc1nc2c(-c3cccc(N4CCN(CCO)CC4)c3)cnn2c(N)c1-c1ccc(F)c(F)c1` [Example 101, 2-(4-{3-[7-Amino-6-(3,4-difluoro-phenyl)-5-methyl-pyrazolo[1,5-a]pyrimidin-3-yl]-phenyl}-piperazin-1-yl)-ethanol]: above 10 µM.
